{"source": "patent US10278971B2", "about": "“Fluorocyclopentenylcytosine methods of use” (Rexahn Pharmaceuticals, Inc., priority 2015, dated 2019)", "assay_in_all_cases": "Mice xenograft model, tumor growth inhibition", "type_in_all_cases": "in vivo", "key": {"A549": {"tested_on": "A549", "conditions": "oral 500 mg/kg, TIWK", "from_the_text": "(§1) A novel, orally bioavailable nucleoside analogue, RX-3117, is a prodrug activated intracellularly by Uridine Cytidine Kinase 2 (UCK2) that is thought to be expressed predominantly in tumor tissue. RX-3117 is currently being evaluated in a Phase Ib/IIa multi-center, open-label clinical study in patients with advanced pancreatic and bladder cancer. In this study, the relation between UCK2 tissue protein expression and the efficacy of RX-3117 in mice xenograft models and also UCK2 protein expression in a panel of human cancer tissues relative to normal tissue were studied.\n(§2) The immunoblotting protein level of UCK2 normalized to beta-actin and corresponding tumor growth inhibition (oral RX-3117 dose of 500 mg/kg, TIWK) were 57 and 67% in MiaPaCa2, 30 and −5% in BxPC3, 199 and 92% in Colo-205, 21 and 90% in Caki-1, 2 and 39% in A549, and 146 and 79% in H460, respectively. […] Average H-Scores of UCK2 in cancer tissues vs. normal tissues were 104 vs. 9 in lung, 97 vs. 20 in bladder, 67 vs. 41 in pancreas and 39 vs. 21 in colon, respectively."}, "Colo-205": {"tested_on": "Colo-205", "conditions": "Colo-205 xenograft, oral 500 mg/kg, TIWK", "from_the_text": "as §1, §2"}, "BxPC3": {"tested_on": "BxPC3", "conditions": "oral 500 mg/kg, TIWK", "from_the_text": "as §1, §2"}, "H460": {"tested_on": "H460", "conditions": "oral 500 mg/kg, TIWK", "from_the_text": "as §1, §2"}, "MiaPaCa2": {"tested_on": "MiaPaCa2", "conditions": "oral 500 mg/kg, TIWK", "from_the_text": "as §1, §2"}}, "data": [{"smiles": "Nc1ccn([C@@H]2C(F)=C(CO)[C@@H](O)[C@H]2O)c(=O)n1", "note": "[RX-3117, 4-amino-1-((1S,4R,5S)-2-fluoro-4,5-dihydroxy-3-hydroxymethyl-cyclopent-2-enyl)-1H-pyrimidin-2-one]", "values": [{"measurement": "tumor growth inhibition", "setting": "A549", "result": 39, "unit": "%"}, {"measurement": "tumor growth inhibition", "setting": "Colo-205", "result": 92, "unit": "%"}, {"measurement": "tumor growth inhibition", "setting": "BxPC3", "result": "−5", "unit": "%"}, {"measurement": "tumor growth inhibition", "setting": "H460", "result": 79, "unit": "%"}, {"measurement": "tumor growth inhibition", "setting": "MiaPaCa2", "result": 67, "unit": "%"}]}]}
